Measurements: US20220323479A1, “COMPOSITIONS AND METHODS USING ADENOSYLCOBALAMIN” (SOCIETE DES PRODUITS NESTLE S.A., priority 2019, published 2022)

Assays:
[1] = tested on: human skeletal muscle myotubes; assay: Luciferase-based ATP production evoked by epibatidine in myotubes; format: cell-based; conditions: vs control
Protocol: (§1) To test the effect of adenosyl B12 and methyl B12 in human muscle myotubes, oxygen consumption rate and ATP production were measured in human myotubes, differentiated from primary adult muscle cells (HSMM). HSMM were purchased from Lonza (https://bioscience.lonza.com). HSMM were isolated from the upper arm or leg muscle tissue of normal donors and used after the second passage. HSMM were seeded in 96-well plates at a density of 12000 cells per well in SKM-M medium (ZenBio). Myotubes were differentiated from HSMM by growing the cells in DMEM/F-12 (Gibco) containing 2% horse serum, for 4 days. From the second growing day, the medium was not containing B12.
ATP measurements were carried out using myotubes infected with the adenovirus (from Sirion biotech) expressing luciferase. Luminescence was measured at the Cytation 3 cell imaging reader (Biotek). Relative changes of ATP were measured 48 h after infection in a luminometer, in standard medium containing 145 mM NaCl, 5 mM KCl, 1 mM MgCl2, 1 mM CaCl2), 10 mM glucose and 10 mM Hepes, pH 7.4. Luciferine (5 μM) was added to promote ATP-dependent reaction and basal luminescence was normalized as 100%. ATP production was stimulated in myotubes by addition of epibatidine.
(§2) For treatment, compounds were directly added to the cell culture or myotubes cultures 3 hours (acute treatment) or 3 days (chronic treatment) before measurements. Custom module analysis based on Excel (Microsoft) and GraphPad Prism 7.02 (GraphPad) software was used for quantification.

[2] = tested on: oxidative phosphorylation genes in skeletal muscle; assay: Gene-set enrichment and network analysis of skeletal muscle (tibialis anterior) RNA of treated old rats; format: in vivo, Male Wistar rats; conditions: 1 mg/kg s.c. 3 times a week, 5 months; for network analysis of regulated genes (protein-protein interactions): interaction score >0.9
Protocol: (§3) Male Wistar rats aged 3 months or 19 months were treated with adenosylcobalamin (Adenosyl-B12) or methylcobalamin (Methyl-B12) at a dose of 1 mg/kg 3 times a week during 5 months by subcutaneous injection. Control animals were injected with equivalent volumes of saline. After 5 months treatment, adult rats were defined as 8 months old rats and old (aged) animals were defined as 24 old rodents.
Total RNA was extracted from tibialis anterior using the Agencourt RNAdvance Tissue Kit. For Gene-set enrichment analysis and Network analysis, RNA quantity was measured with Ribogreen and RNA quality was checked using the Standard Sensitivity RNA Analysis Kit on a Fragment Analyzer. All cRNA targets were synthesized using the IVT plus kit and fragmented according to the Affymetrix protocol, based on the Eberwine T7 procedure. Briefly, 100 ng of total RNA were used to produce double-stranded cDNA, followed by in vitro transcription, and cRNA labeling with biotin. Gene-set enrichment analysis (GSEA) of skeletal muscle describe the significant pathway differentially expressed (FIG. 5A). For Network analysis (FIG. 5B), nodes with an interaction score >0.9 are represented in different gray levels and aggregated by biological function.

[3] = tested on: human skeletal muscle myotubes; assay: Oxygen consumption rate / ATP-synthase-dependent respiration (Seahorse XF96) in epibatidine-stimulated myotubes; format: cell-based; conditions: myotubes treated 3 h, stimulated with epibatidine 10 μM, oligomycin 2.5 μg/ml; vs control
Protocol: as §1
Oxygen consumption was measured using a XF96 instrument (Seahorse Biosciences, North Billerica, Mass., USA). After differentiation, respiration rates were determined every 7 min at 37° C. Myotubes were stimulated with 10 μM epibatidine. […] ATP synthase-dependent respiration was calculated as the difference in respiration rate before and after the addition of oligomycin.
as §2

aged rats = assay: Rotarod muscle performance / locomotor coordination; format: in vivo, Male Wistar rats; conditions: 1 mg/kg s.c. 3 times a week, 5 months, vs control
Protocol: as §3
To determine muscle performance (FIG. 6), locomotor coordination was measured using rotarod device. […] The time of activity on rotarod is measured in seconds. Each animal was recorded 3 times, with a resting period of at least 10 min between each trial.

C/C1=C2/[N-][C@H]([C@H](CC(N)=O)[C@@]2(C)CCC(=O)NC[C@H](C)OP(=O)([O-])O[C@H]2[C@@H](O)[C@@H](n3cnc4cc(C)c(C)cc43)O[C@@H]2CO)[C@]2(C)N=C(/C(C)=C3N=C(/C=C4N=C1[C@@H](CCC(N)=O)C\4(C)C)[C@@H](CCC(N)=O)[C@]\3(C)CC(N)=O)[C@@H](CCC(N)=O)[C@]2(C)CC(N)=O.[CH3-].[Co+3] [methyl B12, methylcobalamin, reference compound]
epibatine-stimulated ATP production ([1]; acute treatment, 3 h): not methyl B12 potentiates epibatine-stimulated ATP production | network analysis of regulated genes (protein-protein interactions) [2]: No network representation of oxidative phosphorylation genes is possible | ATP-synthase-dependent component of the respiration [3]: does not increase the ATP-synthase-dependent component of the respiration

C/C1=C2/[N-][C@H]([C@H](CC(N)=O)[C@@]2(C)CCC(=O)NC[C@@H](C)OP(=O)([O-])O[C@H]2[C@@H](O)[C@@H](n3cnc4cc(C)c(C)cc43)O[C@@H]2CO)[C@]2(C)N=C(/C(C)=C3N=C(/C=C4N=C1[C@@H](CCC(N)=O)C\4(C)C)[C@@H](CCC(N)=O)[C@]\3(C)CC(N)=O)[C@@H](CCC(N)=O)[C@]2(C)CC(N)=O.[CH2-][C@H]1O[C@@H](n2cnc3c(N)ncnc32)[C@H](O)[C@@H]1O.[Co] [Adenosyl B12, adenosylcobalamin]
epibatine-stimulated ATP production ([1]; acute treatment, 3 h): potentiates epibatine-stimulated ATP production | epibatine-stimulated ATP production ([1]; chronic treatment, 3 days): potentiates epibatine-stimulated ATP production | time of activity on rod (aged rats): significantly increased | gene expression signature of oxidative phosphorylation genes (enrichment plot analysis, GSEA) ([2]; Adenosyl-B12 vs Methyl-B12): specifically shows gene expression signature of oxidative phosphorylation genes in skeletal muscle | network analysis of regulated genes (protein-protein interactions) [2]: distinguished several clusters linked to mitochondrial respiratory chain complexes, oxidative phosphorylation and mitochondrial function | ATP-synthase-dependent component of the respiration [3]: increases the ATP-synthase-dependent component of the respiration
